From US10294259B2, “Phenyl c-glucoside derivative containing deoxyglucose structure, preparation method and use thereof” (Tianjin Institute of Pharmaceutical Research, priority 2012, dated 2019)

Tests used:
hSGLT2 = hSGLT2 (Homo sapiens (Human), UniProt P31639); assay: IC50 of inhibition on SGLT2 (method of Meng et al., J. Med. Chem. 2008); type: cell-based; details: compared with methoxyl and methyl analogues of Table 3
[1] = Influencing factors test: higher temperature stability; type: physicochemical; details: listed as I-D1-6 raw materials
Source text: (§1) The appearance, number of impurity and the amount of impurity (measured by HPLC) are compared with that of day 0.

[2] = Influencing factors test: higher humidity stability; type: physicochemical; details: listed as I-D1-6 raw materials
Source text: as §1

[3] = test system: SD rats (type 2 diabetes model); assay: Urine glucose excretion in streptozotocin/high-fat high-sucrose diet type 2 diabetes model rats, glucose-oxidase method; type: in vivo, rat; details: compared with analogues or non-deoxy compounds
Procedure: The health SD rats are injected intraperitoneally with multiple low doses of streptozotocin for modeling (type 2 diabetes model) after feeding with high-fat and high-sucrose diet, and the content of blood glucose is measured before and after modeling. After the modeling successful, the rats for modeling are randomly divided (8 rats/group) into one blank group (administering the same volume of 0.5% CMC sodium solution) and several groups for compounds to be tested (6 mg/kg) according to the content of 24-hour urine glucose and the body weight. Rats in each group are fasted for 16 hours before experiment. The experimental rats are administered intragastrically with glucose (2 g/kg) at 0.5 h after intragastrical administration with compounds to be tested. The urine is collected at the time-period of 0-12 h after administration, and the urine glucose values are measured at each time-period by glucose-oxidase method. […]

[4] = Influencing factors test: light stability; type: physicochemical; details: listed as I-D1-6 raw materials
Source text: as §1

hSGLT1 = hSGLT1 (Homo sapiens (Human), UniProt P13866); assay: IC50 of inhibition on SGLT1 (method of Meng et al., J. Med. Chem. 2008); type: cell-based; details: compared with methoxyl and methyl analogues of Table 3
hSGLT1, sequence (P13866 whole entry): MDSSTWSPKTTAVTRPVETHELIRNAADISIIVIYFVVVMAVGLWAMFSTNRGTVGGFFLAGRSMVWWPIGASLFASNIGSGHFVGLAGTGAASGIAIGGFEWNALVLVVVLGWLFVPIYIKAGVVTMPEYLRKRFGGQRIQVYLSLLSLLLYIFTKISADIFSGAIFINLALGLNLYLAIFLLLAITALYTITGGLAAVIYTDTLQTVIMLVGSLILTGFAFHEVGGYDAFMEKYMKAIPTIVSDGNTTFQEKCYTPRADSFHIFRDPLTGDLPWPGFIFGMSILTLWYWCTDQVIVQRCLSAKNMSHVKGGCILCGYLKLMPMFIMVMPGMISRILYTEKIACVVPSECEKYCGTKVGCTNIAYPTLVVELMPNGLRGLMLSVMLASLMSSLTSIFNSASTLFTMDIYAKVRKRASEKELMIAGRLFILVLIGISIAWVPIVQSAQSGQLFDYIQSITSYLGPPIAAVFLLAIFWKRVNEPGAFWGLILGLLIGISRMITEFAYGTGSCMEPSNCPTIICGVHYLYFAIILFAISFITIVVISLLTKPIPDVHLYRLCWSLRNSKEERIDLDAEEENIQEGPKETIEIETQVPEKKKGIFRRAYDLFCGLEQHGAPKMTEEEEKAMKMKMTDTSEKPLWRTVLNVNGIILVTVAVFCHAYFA

hSGLT2, sequence (P31639 whole entry): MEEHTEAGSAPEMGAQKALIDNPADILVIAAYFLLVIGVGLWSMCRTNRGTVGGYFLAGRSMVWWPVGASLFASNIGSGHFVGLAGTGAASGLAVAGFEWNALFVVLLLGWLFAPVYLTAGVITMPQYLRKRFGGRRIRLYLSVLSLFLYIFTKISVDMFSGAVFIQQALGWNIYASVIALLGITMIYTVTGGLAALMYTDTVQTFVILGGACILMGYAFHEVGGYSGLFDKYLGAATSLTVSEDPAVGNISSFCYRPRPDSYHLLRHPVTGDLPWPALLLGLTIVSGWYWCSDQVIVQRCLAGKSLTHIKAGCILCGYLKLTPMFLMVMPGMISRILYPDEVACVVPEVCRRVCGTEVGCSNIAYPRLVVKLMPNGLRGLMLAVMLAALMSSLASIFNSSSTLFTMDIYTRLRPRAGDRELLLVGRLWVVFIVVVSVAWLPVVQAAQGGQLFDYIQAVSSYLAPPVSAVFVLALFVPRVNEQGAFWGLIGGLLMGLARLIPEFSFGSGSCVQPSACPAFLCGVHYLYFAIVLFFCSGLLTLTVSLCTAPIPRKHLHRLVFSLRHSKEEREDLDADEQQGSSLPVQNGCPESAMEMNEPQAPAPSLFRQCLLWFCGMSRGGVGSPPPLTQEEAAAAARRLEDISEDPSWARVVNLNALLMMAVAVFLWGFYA

CCOc1ccc(Cc2cc(C3OC(C)C(O)C(O)C3O)ccc2Cl)cc1 [I-D1-6, (1S)-1-[4-chloro-3-(4-ethoxybenzyl)phenyl]-1,6-dideoxy-D-glucose]
inhibition to SGLT2 (comparison in words) (hSGLT2): much stronger inhibition to SGLT2 | selectivity on SGLT1/SGLT2 (comparison in words) (hSGLT2): much better selectivity on SGLT1/SGLT2 | Number of impurity ([1]; 45° C., day 0, HPLC): 7 | Total amount of impurity (%) ([1]; 45° C., day 0, HPLC): 0.89% | Number of impurity ([1]; 45° C., day 7, HPLC): 8 | Total amount of impurity (%) ([1]; 45° C., day 7, HPLC): 0.97% | Appearance ([1]; 45° C., day 7): white, foam-like | Number of impurity ([1]; 45° C., day 14, HPLC): 9 | Appearance ([1]; 45° C., day 14): white, foam-like | Appearance ([1]; higher temperature (45° C.), day 0): white, foam-like | Appearance ([2]; higher humidity (30% relative humidity at 30° C.), day 0): white, foam-like | Appearance ([2]; higher humidity, day 7): white foam-like | Appearance ([2]; higher humidity, day 14): white foam-like | urine glucose excretion effect (comparison in words) [3]: stronger urine glucose excretion effect | Appearance ([4]; light (natural daylight, about 80000 Lx), day 0): a white, foam-like | Appearance ([4]; light, day 7): a white, foam-like | Appearance ([4]; light, day 14): a white, foam-like | inhibition to SGLT1 (comparison in words) (hSGLT1): much less inhibition to SGLT1
